Source: patent US11746103B2, “ALK-5 inhibitors and uses thereof” (Sumitomo Pharma Oncology, Inc., priority 2020, dated 2023)
Read-outs that look alike come from different tables or passages of the source.

Experiments:
ALK-5 = ALK-5 (Homo sapiens (Human), UniProt P36897); experiment: LanthaScreen Eu Kinase Binding Assay, ALK-5; conditions: for IC50: read-out: Kinase Inhibition: ALK5 IC50
Experimental: Activity determinations and selectivity were conducted by Thermo Fisher Scientific “SelectScreen™ Biochemical Kinase Profiling Service” using their “LanthaScreen™ Eu Kinase Binding Assay Screening” (www.thermofisher.com/selectscreen). Binding of an Alexa Fluor™ conjugate or “tracer” to a kinase is detected by addition of a Eu-labeled anti-tag antibody. Binding of the tracer and antibody to a kinase results in a high degree of FRET, whereas displacement of the tracer with a kinase inhibitor results in a loss of FRET. This assay is carried out by mixing the compound tested with the reagents and reading, no development step is required. Life Technologies' Kinase Tracers are based on ATP-competitive kinase inhibitors, making them suitable for detection of any compounds that bind to the ATP site. Inhibitors that bind the ATP site include both Type I kinase inhibitors, which bind solely to the ATP site, and Type II inhibitors (e.g., Gleevec®/Imatinib, Sorafenib, BIRB-796), which bind to both the ATP site and a second site often referred to as the allosteric site. […] For 10 point titrations, 3-fold serial dilutions are conducted from the starting concentration (see Table 2 below). [table] All Kinase/Antibody Mixtures are diluted to a 2× working concentration in the specified kinase buffer. The 4× AlexaFluor labeled Tracer is prepared in Kinase Buffer. Bar-coded, low volume, white 384-well plate (Greiner Cat. #784207) […] 2. 3.84 μL—Kinase Buffer […] 4. 4.0 μL—4× Tracer 5. 30-second plate shake 6. 60-minute incubation at room temperature 7. […] The LanthaScreen Eu Kinase Binding Assay data is analyzed using the equations in Table 3 for each set of data points. [table] Data generated were plotted using the graphing software XLfit from IDBS. The dose response curve is curve fit to model number 205.

[1] = test system: TGF-beta induced SMAD signaling; experiment: RDSR (RD SMAD reporter) Cellular Reporter Assay; type: cell-based; conditions: Homo sapiens
Text: TGF-β signaling is triggered when the activated TGF-β homodimer binds to the TGF-β receptor 2, which in turn leads to the recruitment and phosphorylation of TGF-β receptor 1 (ALK5). Activated TGF-β receptor 1 phosphorylates the signal transduction molecules SMAD2 and SMAD3. These bind to common mediator SMAD4 and translocate to the nucleus where they bind to short conserved DNA sequences called the SMAD binding element and induce the transcription of various target genes. […] Certain example compounds were also or alternatively assayed using the RDSR Cellular Reporter Assay. Overview and Design: The RD SMAD reporter (RDSR) cell line was generated by stabily integrating the SMAD cellular reporter plasmid (Promega, pGL4.48[luc2P/SBE/Hygro]) into the human rhabdomyosarcoma cell line RD (ATCC, CCL-136). Once SMAD signaling is triggered, with, for example, the addition of TGF-β 1, receptor activated SMADs bind the SMAD binding elements (SBEs) leading to the expression of intracellular luciferase. To determine the potency of compounds at inhibiting TGF-beta induced SMAD signaling, the RDSR reporter system was utilized. The rhabdomyosarcoma line RD (ATCC, CCL-136) was transfected with a SMAD reporter vector (Promega, E3671) and a polyclonal stable cell line was selected using hygromycin B. The transfected vector contains three copies of a SMAD-binding element (SBE) that drive transcription of the luciferase reporter gene luc2P (Photinus pyralis). luc2P is a synthetically-derived luciferase sequence with humanized codon optimization that is designed for high expression and reduced anomalous transcription. The luc2P gene contains hPEST, a protein destabilization sequence, which allows luc2P protein levels to respond more quickly than those of luc2 to induction of transcription. The intracellular luciferase is quantified by the addition of equal volume (100 μl) of ONE-GLO substrate (Promega, E6120) and read within ten minutes on the Envision plate reader. The stable RDSR cell line was tested by evaluating the response to human TGF-β1 (R&D Systems, 7754-BH-005) as well as human myostatin (R&D Systems, 788-G8-010/CF) in a concentration dependent manner after twenty-four hours of stimulation. […] For compound evaluation, the tool drugs Galunisertib and Vactosertib were included as positive controls. The tool drugs and the compounds of the invention being tested were all incubated with cells for one hour at 37° C. before stimulation with 200 pg/ml rhTGF-beta1 for twenty-four hours. The activity of the reporter was determined with the addition of ONE-GLO (Promega) substrate and luminescence counts collected on the Envision plate reader (Perkin Elmer). […] The activity of compounds of the invention as determined using this method are reported in the third column of Table 1, below.

[2] = 200 pg/ml rhTGF-beta1, 24 h, read-out: RD-SMAD reporter activity

Sequence of ALK-5 (P36897 34-503): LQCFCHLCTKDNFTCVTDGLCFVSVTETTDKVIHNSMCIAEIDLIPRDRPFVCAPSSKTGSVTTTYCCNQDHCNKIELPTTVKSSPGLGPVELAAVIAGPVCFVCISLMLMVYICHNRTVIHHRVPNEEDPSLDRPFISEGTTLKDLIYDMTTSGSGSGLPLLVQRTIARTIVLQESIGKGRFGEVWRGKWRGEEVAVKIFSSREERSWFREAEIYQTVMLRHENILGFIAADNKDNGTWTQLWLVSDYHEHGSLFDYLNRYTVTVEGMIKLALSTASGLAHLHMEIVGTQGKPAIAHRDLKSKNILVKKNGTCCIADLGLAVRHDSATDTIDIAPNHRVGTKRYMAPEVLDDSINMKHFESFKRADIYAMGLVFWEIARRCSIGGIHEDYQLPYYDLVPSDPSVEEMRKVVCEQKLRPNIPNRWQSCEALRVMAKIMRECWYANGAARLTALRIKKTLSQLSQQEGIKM

| Structure (SMILES) | Kinase Selectivity: ALK2 IC50/ ALK5 IC50 (ALK-5) | IC50 (ALK-5) | IC50 [1, 2] | IC50 ([1]; 24 h, read-out: RD-SMAD reporter activity (nM)) |
| --- | --- | --- | --- | --- |
| Cc1c(F)ccc2c(Nc3ccnc(Nc4ccc(N5CCNCC5)cc4)n3)cnnc12 [EX-02, N4-(7-fluoro-8-methylcinnolin-4-yl)-N2-(4-(piperazin-1-yl)phenyl)-pyrimidine-2,4-diamine] | (++) (10<ALK2/ALK5<100=[++]) | < 10 nM | < 100 nM | – |
| Cc1cccc2c(Nc3ccnc(Nc4ccc(C5CCCCC5)cc4)n3)cnnc12 [EX-56, N2-(4-cyclohexylphenyl)-N4-(8-methylcinnolin-4-yl)pyrimidine-2,4-diamine] | (+++) (100≤ALK2/ALK5=[+++]) | < 10 nM | 100 to 1000 nM | – |
| Cc1cccc2c(Nc3ccnc(Nc4cccc(S(N)(=O)=O)c4)n3)cnnc12 [EX-35, 3-((4-((8-methylcinnolin-4-yl)amino)-pyrimidin-2-yl)amino)benzenesulfonamide] | (+) (≤10=[+]) | < 10 nM | < 100 nM | – |
| Cc1cccc2c(Nc3ccnc(Nc4cc(F)cc(CN5CCNCC5)c4)n3)cnnc12 [EX-06, N2-(3-fluoro-5-(piperazin-1-ylmethyl)phenyl)-N4-(8-methyl-cinnolin-4-yl)pyrimidine-2,4-diamine] | (+) (≤10=[+]) | < 10 nM | < 100 nM | – |
| Cc1cccc2c(Nc3ccnc(Nc4ccc(N5CCN(CCO)CC5)cc4)n3)cnnc12 [EX-37, 2-(4-(4-((4-((8-methylcinnolin-4-yl)amino)pyrimidin-2-yl)amino)phenyl)piperazin-1-yl)ethan-1-ol] | (++) (10<ALK2/ALK5<100=[++]) | < 10 nM | < 100 nM | – |
| Cc1cccc2c(Nc3ccnc(Nc4ccc(N5CCCCC5)cc4)n3)cnnc12 [EX-55, N4-(8-methylcinnolin-4-yl)-N2-(4-(piperidin-1-yl)phenyl)pyrimidine-2,4-diamine] | (++) (10<ALK2/ALK5<100=[++]) | < 10 nM | < 100 nM | – |
| Cc1cccc2c(Nc3ccnc(Nc4ccc(N5CCN(CC(F)(F)F)CC5)cc4)n3)cnnc12 [EX-17, N4-(8-methyl-cinnolin-4-yl)-N2-(4-(4-(2,2,2-trifluoroethyl)-piperazin-1-yl)phenyl)-pyrimidine-2,4-diamine] | (++) (10<ALK2/ALK5<100=[++]) | < 10 nM | < 100 nM | – |
| Cc1cccc2c(Nc3ccnc(Nc4ccc(N5CCNCC5)c(F)c4)n3)cnnc12 [EX-08, N2-(3-fluoro-4-(piperazin-1-yl)phenyl)-N4-(8-methylcinnolin-4-yl)pyrimidine-2,4-diamine] | (++) (10<ALK2/ALK5<100=[++]) | < 10 nM | – | < 100 nM |
| c1cc(Nc2nccc(Nc3cnnc4c(C5CC5)cccc34)n2)cc(N2CCOCC2)c1 [EX-57, N4-(8-cyclopropylcinnolin-4-yl)-N2-(3-morpholinophenyl)pyrimidine-2,4-diamine] | (++) (10<ALK2/ALK5<100=[++]) | < 10 nM | < 100 nM | – |
| Cc1cccc2c(Nc3ccnc(Nc4ccc(CN5CCNCC5)cc4)n3)cnnc12 [EX-20, N4-(8-methyl-cinnolin-4-yl)-N2-(4-(piperazin-1-yl-methyl)phenyl)pyrimidine-2,4-diamine] | (++) (10<ALK2/ALK5<100=[++]) | < 10 nM | < 100 nM | – |
| Cc1c(F)ccc2c(Nc3ccnc(Nc4cccc(N5CCOCC5)c4)n3)cnnc12 [EX-40, N4-(7-fluoro-8-methylcinnolin-4-yl)-N2-(3-morpholinophenyl)pyrimidine-2,4-diamine] | (++) (10<ALK2/ALK5<100=[++]) | < 10 nM | < 100 nM | – |
| CN1CCN(c2ccc(Nc3nccc(Nc4cnnc5c(Cl)cccc45)n3)cc2)CC1 [EX-49, N4-(8-chlorocinnolin-4-yl)-N2-(4-(4-methylpiperazin-1-yl)phenyl)pyrimidine-2,4-diamine] | (++) (10<ALK2/ALK5<100=[++]) | < 10 nM | < 100 nM | – |
| Cc1cccc2c(Nc3nc(Nc4ccc(N5CCN(C)CC5)cc4)ncc3F)cnnc12 [EX-32, 5-fluoro-N4-(8-methylcinnolin-4-yl)-N2-(4-(4-methylpiperazin-1-yl)phenyl)pyrimidine-2,4-diamine] | (++) (10<ALK2/ALK5<100=[++]) | 10 to 100 nM | 100 to 1000 nM | – |
| Cc1cccc2c(Nc3ccnc(Nc4cc(F)cc(CC5CCN(C)CC5)c4)n3)cnnc12 [EX-43, N2-(3-fluoro-5-((1-methylpiperidin-4-yl)methyl)phenyl)-N4-(8-methylcinnolin-4-yl)pyrimidine-2,4-diamine] | (+) (≤10=[+]) | < 10 nM | 100 to 1000 nM | – |
| Cc1ccc(F)c2c(Nc3ccnc(Nc4ccc(N5CCN(C)CC5)cc4)n3)cnnc12 [EX-24, N4-(5-fluoro-8-methylcinnolin-4-yl)-N2-(4-(4-methylpiperazin-1-yl)phenyl)pyrimidine-2,4-diamine] | (++) (10<ALK2/ALK5<100=[++]) | < 10 nM | < 100 nM | – |
| Cc1cc(F)cc2c(Nc3ccnc(Nc4ccc(N5CCNCC5)cc4)n3)cnnc12 [EX-15, N4-(6-fluoro-8-methyl-cinnolin-4-yl)-N2-(4-(piperazin-1-yl)phenyl)-pyrimidine-2,4-diamine] | (++) (10<ALK2/ALK5<100=[++]) | < 10 nM | < 100 nM | – |
| Cc1cccc2c(Nc3ccnc(Nc4ccc(N5CCN(C)CC5)c(F)c4)n3)cnnc12 [EX-53, N2-(3-fluoro-4-(4-methylpiperazin-1-yl)phenyl)-N4-(8-methylcinnolin-4-yl)pyrimidine-2,4-diamine] | (++) (10<ALK2/ALK5<100=[++]) | < 10 nM | < 100 nM | – |
| Cc1cccc2c(Nc3ccnc(Nc4cc(F)cc(N5CCOCC5)c4)n3)cnnc12 [EX-44, N2-(3-fluoro-5-morpholinophenyl)-N4-(8-methylcinnolin-4-yl)pyrimidine-2,4-diamine] | (++) (10<ALK2/ALK5<100=[++]) | < 10 nM | < 100 nM | – |
| Cc1c(F)ccc2c(Nc3ccnc(Nc4ccc(N5CCN(C)CC5)cc4)n3)cnnc12 [EX-01, N4-(7-fluoro-8-methylcinnolin-4-yl)-N2-(4-(4-methyl-piperazin-1-yl)-phenyl)-pyrimidine-2,4-diamine] | (++) (10<ALK2/ALK5<100=[++]) | < 10 nM | < 100 nM | – |
| Clc1cccc2c(Nc3ccnc(Nc4ccc(N5CCNCC5)cc4)n3)cnnc12 [EX-50, N4-(8-chlorocinnolin-4-yl)-N2-(4-(piperazin-1-yl)phenyl)pyrimidine-2,4-diamine] | (++) (10<ALK2/ALK5<100=[++]) | < 10 nM | 100 to 1000 nM | – |
| Cc1cccc2c(Nc3ccnc(Nc4ccc(N5CCN(C)CC5)c(Cl)c4)n3)cnnc12 [EX-34, N2-(3-chloro-4-(4-methyl-piperazin-1-yl)-phenyl)-N4-(8-methylcinnolin-4-yl)pyrimidine-2,4-diamine] | (++) (10<ALK2/ALK5<100=[++]) | < 10 nM | < 100 nM | – |
